Results published in patent US12180207B2 (ARRAY BIOPHARMA INC., priority 2018, dated 2024).

Key:
[1] = target: recombinant human FGFR3 (amino acids R397-T806) (Homo sapiens (Human), UniProt P22607); assay: FGFR3 enzyme activity assay (LanthaScreen TR-FRET); format: biochemical; details: 25 μM ATP, 10 min incubation at 22° C., average of multiple determinations if made, read-out: FGFR3 Enz FRET IC50
How it was run: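 GST-HIS6-tagged human FGFR3 (R397-T806) was reacted with 100 nM Alexa Fluor 647-Poly-GT substrate and 25 μM ATP plus compound in HEPES/MgCl2/Triton buffer, pH 7.5, 2% DMSO, for 10 min at 22 °C.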

[2] = target: FGFR1 (SEQ ID NO: 1, amino acids 458-765) (Homo sapiens (Human), UniProt P11362); assay: LC/MS FGFR1 kobs assay (covalent protein modification); format: binding; details: 500 nM FGFR1, 3 μM compound
How it was run: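 Covalent labeling of FGFR1 kinase domain (aa 458-765) tracked over time by intact-protein LC/MS after formic acid quench. kobs derived by fitting DMSO-normalized percent unmodified FGFR1 to an exponential decay model.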

[3] = target: recombinant human FGFR2 cytoplasmic domain (amino acids 403-822) (Homo sapiens (Human), UniProt P21802); assay: FGFR2 enzyme activity assay (LanthaScreen TR-FRET); format: biochemical; details: 15 μM ATP, 20 min incubation at 22° C., average of multiple determinations if made, read-out: FGFR2 Enz FRET IC50
How it was run: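 Substrate phosphorylation was read by TR-FRET using Eu-PY20 antibody (60 min, 22 °C) after a 20 min, 22 °C reaction. The reaction used 15 μM ATP, 100 nM fluorescent poly-GT peptide and His-tagged FGFR2 403-822 ([…]) at pH 7.5 with 2% DMSO.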

[4] = target: dephosphorylated FGFR1 (SEQ ID NO: 1, amino acids 458 to 765) (Homo sapiens (Human), UniProt P11362); assay: FGFR enzyme binding assay (HTRF tracer displacement), FGFR1; details: 5 nM dephosphorylated FGFR1, average of multiple determinations if made
How it was run: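 Kinase and tracer were incubated with compound for 60 minutes at 22° C. Tracer displacement was then measured by HTRF, and results were expressed as POC with 1 μM control inhibitor defining full displacement.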

[5] = target: recombinant human FGFR1 catalytic domain (amino acids 308-731) (Homo sapiens (Human), UniProt P11362); assay: FGFR1 enzyme activity assay (LanthaScreen TR-FRET); format: biochemical; details: 20 min incubation at 22° C., average of multiple determinations if made, read-out: FGFR1 Enz FRET IC50
How it was run: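 His-tagged FGFR1 kinase domain with 100 nM Alexa Fluor 647-poly-GT peptide and ATP in pH 7.5 HEPES/MgCl2 buffer with 2% DMSO, 20 min at 22 °C. Quenched with EDTA plus 2 nM Eu-PY20 antibody and read after 60 min. IC50 comes from a 4-parameter fit of percent of control.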

recombinant human FGFR2 cytoplasmic domain (amino acids 403-822), sequence (P21802 402-821): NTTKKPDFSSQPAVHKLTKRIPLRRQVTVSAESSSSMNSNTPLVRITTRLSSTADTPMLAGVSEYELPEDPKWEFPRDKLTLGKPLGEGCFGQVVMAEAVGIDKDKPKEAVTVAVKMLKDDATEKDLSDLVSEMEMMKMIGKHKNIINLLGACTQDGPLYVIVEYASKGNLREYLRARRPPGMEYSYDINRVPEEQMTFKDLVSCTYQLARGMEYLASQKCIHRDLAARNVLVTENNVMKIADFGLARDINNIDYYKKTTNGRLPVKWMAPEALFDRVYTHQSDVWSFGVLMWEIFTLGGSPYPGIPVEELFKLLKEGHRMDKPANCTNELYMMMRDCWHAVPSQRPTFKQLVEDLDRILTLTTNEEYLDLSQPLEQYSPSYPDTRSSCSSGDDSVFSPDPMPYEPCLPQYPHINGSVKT
recombinant human FGFR3 (amino acids R397-T806), sequence (P22607 397-806): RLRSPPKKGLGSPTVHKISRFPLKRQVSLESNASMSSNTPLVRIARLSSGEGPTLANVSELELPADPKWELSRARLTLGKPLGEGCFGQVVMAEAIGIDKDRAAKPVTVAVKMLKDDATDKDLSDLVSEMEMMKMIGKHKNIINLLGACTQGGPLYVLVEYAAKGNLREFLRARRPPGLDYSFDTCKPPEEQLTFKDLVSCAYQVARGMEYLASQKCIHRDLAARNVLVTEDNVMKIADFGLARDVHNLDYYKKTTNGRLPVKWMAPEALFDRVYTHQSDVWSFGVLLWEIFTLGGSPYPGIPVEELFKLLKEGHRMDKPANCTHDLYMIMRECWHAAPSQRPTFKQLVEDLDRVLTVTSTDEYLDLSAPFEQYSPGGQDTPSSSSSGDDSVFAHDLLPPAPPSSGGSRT
recombinant human FGFR1 catalytic domain (amino acids 308-731), sequence (P11362 other isoform, or with tags, fused parts or gaps): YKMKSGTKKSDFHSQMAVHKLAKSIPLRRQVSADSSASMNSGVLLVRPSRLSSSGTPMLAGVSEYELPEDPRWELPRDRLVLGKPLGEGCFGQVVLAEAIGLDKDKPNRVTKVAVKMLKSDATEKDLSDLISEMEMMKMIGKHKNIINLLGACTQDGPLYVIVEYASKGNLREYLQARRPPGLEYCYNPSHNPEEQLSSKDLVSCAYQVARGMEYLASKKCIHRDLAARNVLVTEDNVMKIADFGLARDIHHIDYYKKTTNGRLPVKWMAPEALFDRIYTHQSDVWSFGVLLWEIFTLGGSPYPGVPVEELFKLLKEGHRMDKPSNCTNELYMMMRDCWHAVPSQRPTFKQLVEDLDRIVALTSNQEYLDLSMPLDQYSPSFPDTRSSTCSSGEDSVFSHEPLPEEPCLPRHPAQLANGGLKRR
dephosphorylated FGFR1 (SEQ ID NO: 1, amino acids 458 to 765), sequence (P11362 458-765): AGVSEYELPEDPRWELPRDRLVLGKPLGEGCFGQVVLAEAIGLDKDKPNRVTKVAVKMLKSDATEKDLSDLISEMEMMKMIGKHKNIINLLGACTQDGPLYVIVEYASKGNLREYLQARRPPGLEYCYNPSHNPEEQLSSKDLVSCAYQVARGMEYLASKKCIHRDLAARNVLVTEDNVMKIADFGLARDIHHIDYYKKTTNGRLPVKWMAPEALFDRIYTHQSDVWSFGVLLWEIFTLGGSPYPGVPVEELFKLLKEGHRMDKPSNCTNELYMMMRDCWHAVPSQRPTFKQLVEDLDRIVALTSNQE
FGFR1 (SEQ ID NO: 1, amino acids 458-765), sequence (P11362 458-765): as above

IC50 [1]: 4 nM
FGFR1 Enz kobs [2]: 0.00583 min⁻¹
IC50 [3]: 5 nM
IC50 [4]: 103 nM
IC50 [5]: 19 nM
Structure (SMILES): C=CS(=O)(=O)N[C@@H]1CC[C@H](C(=O)N2CCC(n3cc(-c4cc(OC)c5c(C#N)cnn5c4)cn3)CC2)C1 [Example 191, N-((1R,3S)-3-(4-(4-(3-cyano-4-methoxypyrazolo[1,5-a]pyridin-6-yl)-1H-pyrazol-1-yl)piperidine-1-carbonyl)cyclopentyl)-ethenesulfonamide]
